Article PMC6718149, “Structure of GTP cyclohydrolase I from Listeria monocytogenes, a potential anti-infective drug target” (Acta Crystallographica. Section F, Structural Biology …, 2019)

T1: human GTP cyclohydrolase I (Homo sapiens, UniProt P30793)
T1 construct: made in house
T1 sequence (P30793 43-250 limits assumed): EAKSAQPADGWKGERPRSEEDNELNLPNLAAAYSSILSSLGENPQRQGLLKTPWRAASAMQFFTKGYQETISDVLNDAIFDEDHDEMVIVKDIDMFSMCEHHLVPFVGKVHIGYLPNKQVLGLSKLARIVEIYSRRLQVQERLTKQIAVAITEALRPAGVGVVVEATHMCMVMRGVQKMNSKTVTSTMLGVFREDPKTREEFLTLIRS

B1: GTP cyclohydrolase I from Listeria monocytogenes (enzyme, L. monocytogenes)
chain: EQIDKQKIADAVKVILEAVGENPDREGLIDTPMRVARMYEEVFAGLKKDPSVHFDTIFEEQHEELVLVKDIRFSSMCEHHLVPFFGVAHVAYLPQNGRVAGLSKLARVVDDVSRRPQLQERITTTVAEIMMEKLKPLGVMVIMEAEHMCMTIRGVNKPGTKTITSAVRGAFKNDDKLRSEVLALIKHN
modifications: Cys78 and Cys150 oxidized to the disulfide level (in the crystal; zinc lost)
notes: GTP cyclohydrolase I (folE), L. monocytogenes ATCC BAA-679; the natural stretch begins at Glu (first cloned triplet GAG) and runs to the stop codon; the printed Cys78 and Cys150 fit numbering with this Glu as residue 2; D5-symmetric homodecamer; also called LmGTPCHI; His6-EK-LmGTP-CHI; source: E. coli XL1-Blue (plasmid pNCO-His6-EK-LmGTP-CHI), purified (nickel-NTA agarose, Superdex 200); not …

Assays:
[1] = target: T2, GTP cyclohydrolase I from L. monocytogenes (Listeria monocytogenes serovar 1/2a, UniProt Q8Y5X1); assay: Photometric GTP cyclohydrolase I inhibition assay (330 nm), IC50 determination of screening hits; assay type: biochemical; settings: GTP cyclohydrolase I from L. monocytogenes (red curve); 200 µM GTP, pH 7.5; calculated with DynaFit
T2 construct: made in house; host or cells: Escherichia coli XL1-Blue, plasmid pNCO-His6-EK-LmGTP-CHI
Procedure: (§1) In order to explore the druggability of the protein, we screened a small library of about 9000 highly diverse compounds (Bracher et al., 1998[▸]). Assays were run in 384-well plates and were monitored photometrically at 330 nm. Hits were rescreened against GTP cyclohydrolase I from L. monocytogenes and human GTP cyclohydrolase I, and IC50 values were determined using the photometric assay. […] Although stronger inhibitors have been reported down to a K i of 5.4 nM (Tanaka et al., 2005[▸]), all of the inhibitors reported so far are substrate or product analogs.
(§2) Assay mixtures contained 50 mM Tris hydrochloride, pH 7.5, 100 mM KCl, 200 µM GTP, and protein. They were monitored photometrically at 330 nm.
(§3) S2. High throughput screen
(§4) A substance library of 9,000 test compounds (courtesy of BASF Crop protection division, Ludwigshafen, Germany) was tested against GTP cyclohydrolase I protein from L. monocytogenes in 384 well clear bottom plates (Corning, polystyrol, flat-bottom, non-treated surface). 32 wells of each plate were used as “signal”, i.e. as positive control with enzyme and substrate, but without test compound. 32 wells of each plate were used as “control”, i.e. as negative control with substrate but without enzyme or test compound. Each of the remaining 320 wells contained app. 50 µM test compound (depending on the molecular weight of a given test substance) in 3 µL DMSO. The compounds were pipetted with a Hamilton Starlet robot (Hamilton Germany GmbH, Planegg, Germany) with a 96-tip pipetting block. Enzyme (final concentration 8.7 µM) and substrate (final concentration 200 µM) were supplied in separate solutions that both contained 50 mM Tris hydrochloride, pH 7.5 and 100 mM KCl. 30 µL per well of both solutions were filled in to the assay plates with an 8-fold dispenser (Bio Tek Germany, Bad Friedrichshall, Germany) and the plates were then centrifuged for 1 min at 1,000 rpm and room temperature. The reaction was monitored with a SpectraMax M5 plate reader photometer (Molecular Devices GmbH, Biberach a. d. Riss, Germany) at 330 nm and room temperature for 30 min. […]

[2] = target: T1, human GTP cyclohydrolase I; assay: Photometric counterscreen against human GTP cyclohydrolase I (330 nm); assay type: biochemical; settings: human GTP cyclohydrolase I (blue curve); 200 µM GTP, pH 7.5; calculated with DynaFit
Procedure: as §1, §2, §3, §4

[3] = target: the molecule itself; assay: crystal structure; sitting-drop vapor diffusion, 1.33 M sodium citrate, 0.1 M HEPES pH 7.3; 2.4 Å; one decamer in the asymmetric unit

Row | Molecule | IC50 [1] [µM] | IC50 [2] [µM] | stoichiometry N [3]
1 | O=C1CS/C(=N/N=C/c2ccc(-c3ccc(Cl)cc3)o2)N1 [(b)] | 27 ± 6 | 238 ± 40 | 
2 | C=CCNc1nc(N)c(C(=O)c2ccc3c(c2)OCO3)s1 [(a)] | 13 ± 1 | > 500 | 
3 | Cc1ccc(OC(=S)Nc2ccc(NC(=S)Oc3ccc(C)cc3)cc2)cc1 [(c)] | 36 ± 3 | 327 ± 66 | 
4 | B1 |  |  | 10
